Results from patent publication EP4537820A1, “COMPOUND AND COMBINATIONS COMPRISING SAID COMPOUND TO IMPROVE IMMUNE RESPONSE” (Institut Gustave-Roussy, priority 2023, dated 2025).

What was measured:
20S proteasome [1] = test system: T1, 20S proteasome; experiment: Thermal Shift Assay (nanoDSF) with 20S; format: binding, human; details: 20S 50nM, compound at 100X (5µM, 0,1% DMSO)
T1 construct: purified 20S proteasome from human erythrocytes; purchased Biotechne E-360-050; host or cells: human erythrocytes
Procedure: Thermal shift assay was carried out with nano differential scanning fluorimetry (nanoDSF) using the Tycho NT.6 from Nanotemper and was performed at the I2BC platform (Gif-sur-Yvette). Samples were prepared in a final volume of 25µL in a 96-well plate prior to be loaded on the Tycho capillaries. Proteins were diluted in activity buffer (20mM Tris-HCl pH 7.4 and 20mM NaCl). After optimisation, REGγ concentration was set to 500nM and 20S concentration to 50nM. Compounds concentrations were determined as ratios to protein concentration and to stay below 0,5% of DMSO; accordingly, compounds with REGγ were tested at 40X (20µM, 0,4% DMSO) and at 100X (5µM, 0,1% DMSO) with 20S. A thermal ramp was applied from 20 to 95°C and fluorescence was followed at 350nm and 330 nm, measuring intrinsic fluorescence of the proteins from tryptophan and tyrosine residues. Binding was detected as a shift in the inflection temperature (Ti) compared to the DMSO control.
To assess the efficacy of molecule 58 in directly binding to REGγ, inventors conducted a thermal shift assay (TSA). TSA leverages the property of proteins to undergo unfolding at specific temperatures, and the interaction with a ligand can alter the thermal stability, leading to a shift in the unfolding temperature. In their study, inventors examined how the compound 58 interacted with REGγ and monitored the change in melting temperature (ΔTm).

20S proteasome [2] = test system: T1, 20S proteasome; experiment: Second confirmatory counter-screen of hits on the proteasome alone; format: biochemical, human; details: counter-screen on 20S proteasome only, without REGγ
Procedure: The 3 chemical libraries tested were obtained from the NIH : The Natural Products set (NP.V) consisting of 390 compounds, the Oncology Approved Drugs set (AOD.IX) consisting of 147 FDA-approved compounds and the Diversity set (DIV.VI) consisting of 1584 compounds. Libraries were prepared and screened with a Biomek FXP workstation in 384 well plates. Compounds activity was assessed using a fluorescence activity test of the proteasome using the Bz-VGR-AMC fluorogenic substrate (#BML-BW9375-0005, Enzo Life Sciences). 50µM of the fluorogenic substrate was used with 20µM of the tested compound, and 2nM of 20S human proteasome (#E-360-050, Biotechne) in presence or absence of 50nM of human REGγ (#E-384-MTO, Biotechne). After preparation of the mix, plates were incubated for 2h at 37°C before being read on a Spectramax i3 microplate reader from Molecular devices (Excitation wavelength : 345nm; Emission wavelength : 445nm). […]
Using the control condition without REGγ, they then eliminated compounds that were inhibiting the 20S proteasome, using the 95% interval of confidence of the 20S control for each plate. […] Fluorescence was measured every minute with a FLUOstar plate reader (BMG Labtech). […]
After conducting the screening and validating the quality control using a custom algorithm, they analyzed the data to select their hits. […]

20S-REGy complex = 20S-REGy complex (Homo sapiens, UniProt P61289); experiment: Peptide degradation assay with Fluorescamine (KH-52), with REGγ; format: biochemical; details: 20S-REGγ complex, 50 µM compound, 37°C
20S-REGy complex, sequence (P61289 whole entry, one chain of several): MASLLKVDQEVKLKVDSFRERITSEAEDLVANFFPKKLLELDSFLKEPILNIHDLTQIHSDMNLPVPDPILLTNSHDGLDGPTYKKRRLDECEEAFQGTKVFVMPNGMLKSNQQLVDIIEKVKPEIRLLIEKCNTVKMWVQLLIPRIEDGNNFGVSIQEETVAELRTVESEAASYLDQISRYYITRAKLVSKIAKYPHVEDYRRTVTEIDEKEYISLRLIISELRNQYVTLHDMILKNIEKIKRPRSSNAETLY
Procedure: Degradation of the 52 amino acid peptide KH-52: […], Boulpicante et al.) by the 20S proteasome was followed by amino-acid group generation using Fluorescamine (#F9015, Sigma-Aldrich). The peptide substrate was incubated at 100µM with 25nM 20S, with or without 160nM REGγ and with different concentration of the tested compounds or DMSO. Assays were performed in 100µL in phosphate buffer (pH 6.8) and incubated at 37°C in a water bath for 8 hours. After 4, 6 and 8 hours, 22µL of sample were retrieved and added to 88µL of phosphate buffer before being stored at - 20°C prior to revelation. For the revelation, samples were thawed and filtered in a centrifuge 20min at 4°C 1kDa filters (#OD003C34, Pall Corporation). To avoid any amino group contamination, filtered were washed in phosphate buffer before use. 20µL of filtered-sample were plated in triplicates in a black 96-wells plate (#237108, Thermo Scientific) and 10µL of fluorescamine (1mg/mL, in 100% acetone) was added to the samples. The plate was placed on agitation for 1min before the reaction was stopped by adding 200µL of water to each well. The fluorescence intensity was measured using a FluoSTAR plate reader (BMG Labtech) with excitation wavelength at 355nm and emission wavelength at 460nm.
These findings were established through both in vitro degradation assays and T cell experiments. […]

change in melting temperature (ΔTm) (20S proteasome [1]): no significant change in ΔTm
inhibition of the 20S core alone (20S proteasome [2]): without inhibiting the 20S core alone
SMILES: Cc1ccc(N=Nc2ccc(C)cc2NC(=O)Nc2ccccc2F)cc1 [compound 58]
rate of peptide bond hydrolysis of KH-52 (20S-REGy complex): notably decelerated the rate of peptide bond hydrolysis
